Data as given in patent US20260200921A1, “SUBSTITUTED AMINOPYRIDINE COMPOUNDS AS AKT INHIBITORS” (Atavistik Bio, Inc., priority 2023, published 2026).

Experiments:
AKT1 E17K = biological target: T1, AKT1 E17K (Homo sapiens, UniProt P31749, E17K); experiment: AKT1 E17K kinase assay (TR-FRET, Lance); assay type: biochemical; settings: full-length human recombinant AKT1 E17K activated by PDPK1; Ulight-CREBtide substrate; either 50 μM ATP or 2 mM ATP
T1 construct: Purified human recombinant kinase full-length AKT1 E17K was expressed in insect cells; made in house; host or cells: insect cells
T1 sequence (P31749 whole entry E17K): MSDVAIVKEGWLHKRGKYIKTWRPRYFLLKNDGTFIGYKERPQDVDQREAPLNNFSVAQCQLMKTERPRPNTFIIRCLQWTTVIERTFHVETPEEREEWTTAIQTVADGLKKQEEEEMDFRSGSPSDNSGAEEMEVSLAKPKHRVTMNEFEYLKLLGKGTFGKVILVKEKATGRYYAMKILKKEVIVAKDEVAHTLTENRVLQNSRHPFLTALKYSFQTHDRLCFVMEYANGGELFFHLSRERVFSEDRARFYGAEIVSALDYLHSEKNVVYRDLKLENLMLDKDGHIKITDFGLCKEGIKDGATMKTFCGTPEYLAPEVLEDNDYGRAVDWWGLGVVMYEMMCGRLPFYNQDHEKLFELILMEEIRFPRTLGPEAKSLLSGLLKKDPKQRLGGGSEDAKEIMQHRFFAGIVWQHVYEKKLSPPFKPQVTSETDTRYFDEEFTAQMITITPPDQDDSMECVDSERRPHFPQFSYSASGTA
Experimental: AKT1 E17K kinase assay: Inhibitory effects of compounds on AKT1 E17K were undertaken in a 10-pt dose response kinase activity assay measuring phospho-peptide product formation based on TR-FRET signal as described in the following paragraph.
(§1) Purified human recombinant kinase full-length AKT1 E17K was expressed in insect cells and activated in vitro by PDPK1. Ulight™-CREBtide (PerkinElmer, catalog number TRF0107) was used as the peptide substrate. The reaction buffer consisted of 50 mM HEPES pH 7.5, 10 mM MgCl2, 0.01% Triton X-100, 0.01% BSA, 2 mM DTT, 0.6 nM AKT1 E17K, 50 nM Ulight™-CREBtide and either 50 μM ATP or 2 mM ATP. The compound solution was prepared as 10 mM DMSO stock. For the assay, a 1:3 serial dilution 10-pt dose response of test compounds, in duplicate, for each concentration were dispensed into a 384-well plate (Corning, catalog number 4513). Final DMSO concentration in the assay was 1%. The enzyme mixture (5 μL, 1.2 nM) were added and the mixture was incubated for 15 min at RT prior to the start of the kinase reaction by the addition of 5 μL substrate mixture (100 nM Ulight™-CREBtide). The reaction was stopped after 60 min of incubation at RT by the addition of 10 μL of Detection Mix (PerkinElmer, #CR97-100) consisting of Europium-anti-phospho-CREB (Ser133) (Perkin Elmer, catalog numberTRF0200). Incubation with the detection mix for a further 60 min allowed binding of antibody to the phospho-Ulight™ CREBtide. The fluorescence emissions at 620 nm and 665 nm after excitation at 350 nm was measured using Envision reader. The ratio of the emissions at 665 nm and at 620 nm provided the measure for the amount of phosphorylated CREBtide product of AKT1 E17K kinase activity. To determine the IC50 values, the data was normalized (enzyme reaction without inhibitor=0% inhibition, all other assay components but no enzyme=100% inhibition) and IC50 values were calculated by a 4-parameter fit using an in-house developed protocol.

wildtype AKT1 = biological target: T2, wildtype AKT1 (Homo sapiens, UniProt P31749); experiment: AKT1 kinase assay, wildtype (TR-FRET, Lance); assay type: biochemical; settings: full-length human recombinant wildtype AKT1 activated by PDPK1; Ulight-CREBtide substrate; either 50 μM ATP or 2 mM ATP
T2 construct: Purified human recombinant kinase full-length wildtype AKT1 was expressed in insect cells; made in house; host or cells: insect cells
T2 sequence (P31749 whole entry): as the sequence (P31749 whole entry E17K) above, with K17E counted along it
Experimental: AKT1 kinase assay: Inhibitory effects of compounds on wildtype AKT1 were undertaken in a 10-pt dose response kinase activity assay measuring phospho-peptide product formation based on TR-FRET signal as described in the following paragraph.
as §1, with “full-length wildtype” for “full-length”, “AKT1” for “AKT1 E17K”, “nM AKT1,” for “nM AKT1 E17K,”, “Mix (PerkinElmer.” for “Mix (PerkinElmer,”

SMILES | IC50 (AKT1 E17K) | IC50 (wildtype AKT1)
CN(Cc1ccc(-n2c(-c3cccnc3N)nc3ccc(-c4ccccc4)nc32)cc1)[C@H]1CC[C@H](c2nsc(=O)[nH]2)CC1 [Compound I-47, 3-((1r,4r)-4-((4-(2-(2-aminopyridin-3-yl)-5-phenyl-3H-imidazo[4,5-b]pyridin-3-yl)benzyl)(methyl)amino)cyclohexyl)-1,2,4-thiadiazol-5(4H)-one] | ≥ 500 nM | < 500 nM
Nc1ncccc1-c1nc2ccc(-c3ccccc3)nc2n1-c1ccc(C2CN(C(=O)c3cccc(-c4nn[nH]n4)c3)C2)cc1 [Compound I-27, (3-(2H-tetrazol-5-yl)phenyl)(3-(4-(2-(2-aminopyridin-3-yl)-5-phenyl-3H-imidazo[4,5-b]pyridin-3-yl)phenyl)azetidin-1-yl)methanone] | 50 to 200 nM | < 500 nM
Nc1ncccc1-c1nc2ccc(-c3ccccc3)nc2n1-c1ccc(CNC(=O)c2cccc(-n3nc(C(F)(F)F)cc3O)c2)cc1 [Compound I-7, N-(4-(2-(2-aminopyridin-3-yl)-5-phenyl-3H-imidazo[4,5-b]pyridin-3-yl)benzyl)-3-(5-hydroxy-3-(trifluoromethyl)-1H-pyrazol-1-yl)benzamide] | ≥ 500 nM | < 500 nM
Cn1ncc(-c2ccc(C(=O)NCc3ccc(-n4c(-c5cccnc5N)nc5ccc(-c6ccccc6)nc54)cc3)cc2)c1O [Compound I-29, N-[[4-[2-(2-amino-3-pyridyl)-5-phenyl-imidazo[4,5-b]pyridin-3-yl]phenyl]methyl]-4-(5-hydroxy-1-methyl-pyrazol-4-yl)benzamide] | ≥ 500 nM | < 500 nM
Nc1ncccc1-c1nc2ccc(-c3ccccc3)nc2n1-c1ccc(C2CCN(C[C@H]3CC[C@@H](c4nsc(=O)[nH]4)CC3)CC2)cc1 [Compound I-46, 3-((1s,4s)-4-((4-(4-(2-(2-aminopyridin-3-yl)-5-phenyl-3H-imidazo[4,5-b]pyridin-3-yl)phenyl)piperidin-1-yl)methyl)cyclohexyl)-1,2,4-thiadiazol-5(4H)-one] | ≥ 500 nM | < 500 nM
Nc1ncccc1-c1nc2ccc(-c3ccccc3)nc2n1-c1ccc(CNC(=O)c2cccc(-c3nn[nH]n3)c2)cc1 [Compound I-21, N-(4-(2-(2-aminopyridin-3-yl)-5-phenyl-3H-imidazo[4,5-b]pyridin-3-yl)benzyl)-3-(2H-tetrazol-5-yl)benzamide] | 50 to 200 nM | < 500 nM

Results, then the compound that gave them:

IC50 (AKT1 E17K) | IC50 (wildtype AKT1) | SMILES
< 50 nM | < 500 nM | Nc1ncccc1-c1nc2ccc(-c3ccccc3)nc2n1-c1ccc(CNC(=O)c2ccc(-c3nn[nH]n3)cc2)cc1 [Compound I-20, N-(4-(2-(2-aminopyridin-3-yl)-5-phenyl-3H-imidazo[4,5-b]pyridin-3-yl)benzyl)-4-(2H-tetrazol-5-yl)benzamide]
50 to 200 nM | < 500 nM | Cc1cc(O)n(-c2ccc(C(=O)NCc3ccc(-n4c(-c5cccnc5N)nc5ccc(-c6ccccc6)nc54)cc3)cc2F)n1 [Compound I-5, N-[[4-[2-(2-amino-3-pyridyl)-5-phenyl-imidazo[4,5-b]pyridin-3-yl]phenyl]methyl]-3-fluoro-4-(5-hydroxy-3-methyl-pyrazol-1-yl)benzamide]
≥ 500 nM | < 500 nM | Cc1nc(NC(=O)[C@H]2CC[C@H](c3nsc(=O)[nH]3)CC2)ccc1-n1c(-c2cccnc2N)nc2ccc(-c3ccccc3)nc21 [Compound I-38, (1r,4r)-N-(5-(2-(2-aminopyridin-3-yl)-5-phenyl-3H-imidazo[4,5-b]pyridin-3-yl)-6-methylpyridin-2-yl)-4-(5-oxo-4,5-dihydro-1,2,4-thiadiazol-3-yl)cyclohexane-1-carboxamide]
≥ 500 nM | > 500 nM | Cc1cc(O)n(-c2ccc(C(=O)NCc3ccc(-n4c(-c5cccnc5N)nc5cc(-c6ccccc6)cnc54)cc3)cc2)n1 [Compound I-23, N-(4-(2-(2-aminopyridin-3-yl)-6-phenyl-3H-imidazo[4,5-b]pyridin-3-yl)benzyl)-4-(5-hydroxy-3-methyl-1H-pyrazol-1-yl)benzamide]
200 to 500 nM | < 500 nM | Nc1ncccc1-c1nc2ccc(-c3ccccc3)nc2n1-c1ccc(CNC(=O)c2ccc(-n3nc(C(F)(F)F)cc3O)cc2)cc1 [Compound I-6, N-(4-(2-(2-aminopyridin-3-yl)-5-phenyl-3H-imidazo[4,5-b]pyridin-3-yl)benzyl)-4-(5-hydroxy-3-(trifluoromethyl)-1H-pyrazol-1-yl)benzamide]
≥ 500 nM | < 500 nM | Nc1ncccc1-c1nc2ccc(-c3ccccc3)nc2n1-c1ccc(C2CN(C[C@H]3CC[C@@H](c4nsc(=O)[nH]4)CC3)C2)cc1 [Compound I-44, 3-((1s,4s)-4-((3-(4-(2-(2-aminopyridin-3-yl)-5-phenyl-3H-imidazo[4,5-b]pyridin-3-yl)phenyl)azetidin-1-yl)methyl)cyclohexyl)-1,2,4-thiadiazol-5(4H)-one]
